We go through one substance from patent US7429564B2, “Oral insulin therapy” (Emisphere Technologies, Inc., priority 2002, dated 2008).

This series concerns glucose infusion rate. The experiment in a line: Example 6: glucose clamp study, glucose infusion rate PD and relative biopotency. In kind it is in vivo, human. The note with it: SC 15 U. From the text: The glucose clamp technique was applied to compare the time-action profiles of the orally applied insulin in comparison to SC regular insulin. This method utilizes negative feedback from frequent blood glucose sample values to adjust a glucose infusion to maintain a defined and constant blood glucose level. The glucose infusion rate therefore becomes a measure of the pharmacodynamic effect of any insulin administered.
During each study visit, stabilized individual blood glucose concentrations were maintained after drug administration using a glucose clamp procedure. The glucose clamp technique [DeFronzo, et al. 1979, Glucose Clamp Technique: A Method of Quantifying Insulin Secretion and Resistance, Am. J. Physiol. 237: E214-E223.] was use to compare the time-action profiles of the orally-applied insulin to s.c. insulin. This method utilizes negative feedback from frequent blood glucose sample values to adjust a glucose infusion to maintain euglycemia. The glucose infusion rate becomes a measure of the pharmacodynamic effect of any insulin administered.
The clamp level was adjusted by a variable intravenous (IV) insulin infusion and glucose infusion rate during a 6 hour baseline period before dosing. During the last 2 hours before administration of the study medication, the insulin infusion was set to a rate of 0.2 mU/kg/min, which rate was not changed until the end of the experiment. At t=0 minutes, exogenous insulin was administered by oral administration or by SC injection. The PD response elicited by the study medication was registered for another 6 hours. No food intake was allowed during this period, but water could be consumed as desired.
The glucose clamp procedure was performed using a Biostator (glucose controlled insulin infusion system—GCIIS, Life Science Instruments, Elkhart, Ind., USA). A 17-gauge PTFE catheter was inserted into an antecubital vein for blood sampling and kept patent with 0.15 mol/L saline. A dorsal hand vein or lateral wrist vein of the same arm was cannulated in retrograde fashion for insertion of an 18-gauge PTFE double lumen catheter connected to the glucose sensor of the Biostator. The catheterized hand was placed in a hot box and warmed to an air temperature of 55° C. On the contralateral arm, a third vein was cannulated with an 18-gauge PTFE catheter to infuse a glucose solution (20% in water). Into the same vein, an insulin solution (regular human insulin in 0.15 mol/L saline diluted with 2 mL of the patient's blood per 100 mL) was continuously infused by means of a syringe pump (Perfusor Secura FT, Braun, Melsungen, Germany).
The primary PD endpoint of the study was the area under the glucose infusion rate curve (AUCGIR) in the first hr after drug administration (AUCGIR 0-1h). The secondary endpoints for pharmacodynamic assessment were the following parameters: Maximum glucose infusion rate (GIRmax), time to GIRmax (tGIRmax), area under the glucose infusion rate curve in defined time-intervals (AUCGIR 0-2h, AUCGIR 0-3h, AUCGIR 0-4h, AUCGIR 0-5h, AUCGIR 0-6h), time to early and late half-maximum glucose infusion rate (early and late TGIR 50%), and maximum reduction of C-peptide concentrations.
PD parameters used for analysis were the maximum glucose infusion rate after application of the study drugs (GIRmax), the time to maximum glucose infusion rate (tGIRmax), time to half-maximum GIR values before GIRmax (early tGIR 50%), time to half-maximum GIR values after GIRmax (late tGIR 50%), and the area under the glucose infusion rate versus time curves from 0 to 60, 120, 180, 240, 300, and 360 min after dosing, and from 180 to 360 min post dose (AUCGIR 0-1h, AUCGIR 0-2h, AUCGIR 0-3h AUCGIR 0-4h, AUCGIR 0-5h, AUCGIR 0-6h, AUCGIR 3-6h, respectively). In addition, plasma concentrations of C-peptide and plasma glucose concentrations were used for PD analysis. […]

For the substance “SC insulin: human regular insulin injected subcutaneously (Humulin R or equivalent; Calbiochem insulin in the rat studies)”, the “GIR Early t50%” value amounted to 150 ± 87 min, the GIRmax came out at 3.6 ± 1.8 mg/kg/min, the “Glucose infusion rate AUC0-1h” value was determined as 27 ± 32 mg/kg and the “Glucose infusion rate AUC0-2h” value came out at 136.54 ± 106.54 mg/kg. Further, the “Glucose infusion rate AUC0-3h” value is on record as 271.43 ± 191.04 mg/kg, the “Glucose infusion rate AUC0-4h” value came out at 421.33 ± 264.76 mg/kg, the “Glucose infusion rate AUC0-5h” value is listed as 548.83 ± 342.71 mg/kg and the “Glucose infusion rate AUC0-6h” value was 650.70 ± 380.16 mg/kg. The tGIRmax came to 255 ± 108 min. For the same substance, where the note is “listed as SC Regular Insulin”, the “GIR Early t50%” value was determined as 150.40 ± 87.44 min, the GIRmax came out at 3.57 ± 1.79 mg/kg/min, the “Glucose infusion rate AUC0-1h” value worked out at 27.38 ± 32.22 mg/kg and the tGIRmax was 255.30 ± 108.15 min.
